These results are taken from paper PMC4503722, “Novel Phenotypic Outcomes Identified for a Public Collection of Approved Drugs from a Publicly Accessible Panel of Assays” (PLoS ONE, 2015).

Experiment [1] deals with endothelial tube formation in co-cultures of ECFCs and ADSCs treated with VEGF. Put plainly: cells. The format is cell-based, human. To be noted: for IC50: read-out: VEGF_ADSC\ECFC Angio CD31 TubeArea summarized IC50.
For experiment [2], the system named is ECFC/ADSC co-culture cell nuclei number. To be noted: for IC50: read-out: VEGF_ADSC\ECFC Angio Hoechst NucArea summarized IC50.

In the case of `CCCOC(=O)c1cc(O)c(O)c(O)c1` [NCGC00164234-04], the IC50 in experiment [1] and in experiment [2] was above 10 µM in each case.

On to `OC[C@@H](O)[C@@H](O)[C@H](O)[C@@H](O)CO` [NCGC00164353-05], for which, in experiment [1], the “VEGF_ADSC\ECFC Angio CD31 TubeArea IC50/EC50” value is reported as above 10 µM. For the same molecule, the “VEGF_ADSC\ECFC Angio Hoechst NucArea IC50/EC50” value in experiment [2] is recorded as above 10 µM.

For the molecule `COc1cc(/C=C2\CCC/C(=C\c3ccc(O)c(OC)c3)C2=O)ccc1O` [NCGC00164486-04], the IC50 (commonly the concentration at which inhibition is half-maximal) in experiment [1] is above 10 µM; in experiment [2], 6.98 µM.

With `CCN(CC)C(=O)/C(C#N)=C/c1cc(O)c(O)c([N+](=O)[O-])c1` [NCGC00164555-03], the “VEGF_ADSC\ECFC Angio CD31 TubeArea IC50/EC50” value in experiment [1] is reported as above 10 µM. The “VEGF_ADSC\ECFC Angio Hoechst NucArea IC50/EC50” value in experiment [2] is recorded as above 10 µM.

In the case of `Cc1c(C(=O)NN2CCCCC2)nn(-c2ccc(Cl)cc2Cl)c1-c1ccc(Cl)cc1` [NCGC00164572-02], the “IC50/EC50, VEGF_ADSC\ECFC Angio CD31 TubeArea (assay number 2)” value (shortened to “IC50/EC50 … (assay number 2)”) in experiment [1] was above 10 µM. Further, the “IC50/EC50, VEGF_ADSC\ECFC Angio Hoechst NucArea (assay number 3)” value (from here on “IC50/EC50 … (assay number 3)”) in experiment [2] is given as above 10 µM.

Consider `CCCCCCCCCCC[C@@H](C[C@@H]1OC(=O)[C@H]1CCCCCC)OC(=O)[C@H](CC(C)C)NC=O` [NCGC00165856-03], for which the “VEGF_ADSC\ECFC Angio CD31 TubeArea IC50/EC50” value in experiment [1] is reported as above 10 µM. Besides, in experiment [2], the “VEGF_ADSC\ECFC Angio Hoechst NucArea IC50/EC50” value is above 10 µM.

Turning to `S=C=Nc1ccc(N=C=S)cc1` [NCGC00166077-02], the “IC50/EC50 … (assay number 2)” value in experiment [1] is reported as above 10 µM. Besides, the “IC50/EC50 … (assay number 3)” value in experiment [2] was above 10 µM.

Regarding `O=C(Nc1ccc([N+](=O)[O-])cc1)Nc1ccc([N+](=O)[O-])cc1` [NCGC00166218-02], the IC50 in experiment [1] and in experiment [2] was above 10 µM throughout.

Regarding `O=[N+]([O-])c1cc(I)c(O)c(I)c1` [NCGC00166241-02], the IC50 in experiment [1] and in experiment [2] was above 10 µM in each case.

In the case of `CCCSS/C(CCO)=C(\C)N(C=O)Cc1cnc(C)nc1N` [NCGC00167447-02], the “VEGF_ADSC\ECFC Angio CD31 TubeArea IC50/EC50” value in experiment [1] is given as above 10 µM. The “VEGF_ADSC\ECFC Angio Hoechst NucArea IC50/EC50” value in experiment [2] is above 10 µM.

Turning to `C#C[C@]1(O)CC[C@H]2[C@@H]3CCC4=CCCC[C@@H]4[C@H]3C(=C)C[C@@]21CC` [NCGC00167449-02], the “VEGF_ADSC\ECFC Angio CD31 TubeArea IC50/EC50” value in experiment [1] was above 10 µM. The “VEGF_ADSC\ECFC Angio Hoechst NucArea IC50/EC50” value in experiment [2] is listed as 9.571 µM.

With `O=NN(CCCl)C(=O)NC1CCCCC1` [NCGC00167466-02], the “VEGF_ADSC\ECFC Angio CD31 TubeArea IC50/EC50” value in experiment [1] is above 10 µM. For the same molecule, the “VEGF_ADSC\ECFC Angio Hoechst NucArea IC50/EC50” value in experiment [2] was above 10 µM.

Take `COc1cccc(CCc2ccccc2OCC(CN(C)C)OC(=O)CCC(=O)O)c1.Cl` (stereo not drawn) [NCGC00167489-03]: in experiment [1], the “VEGF_ADSC\ECFC Angio CD31 TubeArea IC50/EC50” value was above 10 µM. For the same molecule, the “VEGF_ADSC\ECFC Angio Hoechst NucArea IC50/EC50” value in experiment [2] was above 10 µM.

Turning to `COC(=O)C1=C(C)NC(C)=C(C(=O)OC(C)(C)CN(C)CCC(c2ccccc2)c2ccccc2)C1c1cccc([N+](=O)[O-])c1.Cl` (stereo not drawn) [NCGC00167492-03], the “VEGF_ADSC\ECFC Angio CD31 TubeArea IC50/EC50” value in experiment [1] was above 10 µM. Further, the “VEGF_ADSC\ECFC Angio Hoechst NucArea IC50/EC50” value in experiment [2] is reported as above 10 µM.

Consider `COC(=O)C1=C(C)NC(C)=C(C(=O)OCCN2CCN(C(c3ccccc3)c3ccccc3)CC2)C1c1cccc([N+](=O)[O-])c1` (stereo not drawn) [NCGC00167493-04], for which the “IC50/EC50 … (assay number 2)” value in experiment [1] was above 10 µM. In addition, the “IC50/EC50 … (assay number 3)” value in experiment [2] is listed as above 10 µM.

For the molecule `CS(=O)(=O)CCNCc1ccc(-c2ccc3ncnc(Nc4ccc(OCc5cccc(F)c5)c(Cl)c4)c3c2)o1` [NCGC00167507-04], the “VEGF_ADSC\ECFC Angio CD31 TubeArea IC50/EC50” value in experiment [1] is above 10 µM. In addition, the “VEGF_ADSC\ECFC Angio Hoechst NucArea IC50/EC50” value in experiment [2] is given as above 10 µM.

As to `CC[C@]1(O)CC[C@H]2[C@@H]3CCC4=CCCC[C@@H]4[C@H]3CC[C@@]21C` [NCGC00167514-02], the “VEGF_ADSC\ECFC Angio CD31 TubeArea IC50/EC50” value in experiment [1] is 6.2451 µM. In addition, the “VEGF_ADSC\ECFC Angio Hoechst NucArea IC50/EC50” value in experiment [2] was above 10 µM.

Turning to `CCCCCCCCCCCCCCCCCCCCCC(=O)Nc1ccn([C@@H]2O[C@H](CO)[C@@H](O)[C@@H]2O)c(=O)n1` [NCGC00167515-02], the “VEGF_ADSC\ECFC Angio CD31 TubeArea IC50/EC50” value in experiment [1] is given as above 10 µM. Besides, the “VEGF_ADSC\ECFC Angio Hoechst NucArea IC50/EC50” value in experiment [2] is recorded as above 10 µM.
